Results: ChEMBL document CHEMBL1140850, “Structure-activity relationships of lipopolysaccharide sequestration in guanylhydrazone-bearing lipopolyamines” (Bioorg Med Chem, 2009)
The source made the active and inactive calls. The calls are words filed in the database; no cut-off is given here.

Tests used:
HEK293 = assay: Inhibition of LPS-induced NF-kappaB nuclear transactivation in HEK293 cells coexpressed with TLR4 assessed as alkaline phosphatase activity by spectrophotometry; format: cell-based; conditions: Homo sapiens
J774.A1 = assay: Inhibition of LPS-induced NO production in mouse J774A1 cells by Griess assay; format: functional, cell-based
Blood = assay: Inhibition of Escherichia coli 0111:B4 LPS-induced proinflammatory cytokine production in human whole blood after 4 hrs; format: functional, tissue-based
Mus musculus [1] = assay: Toxicity in Escherichia coli 0111:B4 LPS-induced lethality in ip dosed CF1 mouse after 24 hrs; format: organism-based; conditions: in vivo
Mus musculus [2] = assay: Toxicity in Escherichia coli 0111:B4 LPS-induced lethality in CF1 mouse at 200 mg/kg, ip after 24 hrs; format: organism-based; parameters: dose 200 mg/kg, route intraperitoneal; conditions: in vivo

With CCCCCCCCCCCCCCCCNCCCNCCCCNCCCNCC/C=N/NC(=N)N the Activity (HEK293) was “Active” and the Activity (J774.A1) was “Active”.

In the case of CCCCCCCCCCCCCCCCNC(=N)N/N=C/CCNCCCNCCCCNCCCN.O=C(O)C(F)(F)F, the Activity (Blood) is reported as “Dose-dependent effect”, the Activity (Mus musculus [1]) is reported as “Dose-dependent effect” and the LD100 (Mus musculus [1]) is reported as 100 ng. For the same compound, the Activity (J774.A1) was “Active” and the Activity (Mus musculus [2]) was “Non-toxic”.
